The values that follow come from patent publication US20210401867A1, “PHOTOSENSITIZERS AND METHOD OF TREATING CANCER USING THE SAME” (Cheng-Wen Wu, priority 2018, published 2021).

The test system of series [1] is FaDu cells. As to the kind of experiment: colony forming assay of FaDu cells. The series is classed as cell-based, human. The procedure: In the following examples, FaDu cells are used in cell viability tests and colony forming assays. FaDu cells (ATCC HTB-43) is a human head-and-neck cell line with squamous phenotype. FaDu cells used in the following examples are cultured in DMEM medium supplemented with 10% fetal bovine serum (FBS) and 1% penicillin/streptomycin, in a humidified incubator maintained at 37° C. and 5% CO2.
Referring to FIGS. 9A-C, an in vitro cell viability chart of FaDu cells when treated with BrdU alone, NR alone, and BrdU and NR, is provided in accordance with an exemplary embodiment of the present disclosure. NR treatments in FIGS. 9A, 9B, and 9C are similar with the experiment procedures for FIG. 6. In samples where FaDu cells are treated with BrdU and NR, FaDu cells are incubated with BrdU for 24 hours before irradiated with NR. Referring to FIG. 9B, a colony forming assay result of FaDu cells after the treatments described in […], is provided in accordance with an exemplary embodiment of the present disclosure. The colony forming assay in FIG. 9B are proceeded as following: FaDu cells treated by different regimens are grouped and seeded in 6-well-plates with 1000 cells in each of the well and cultured for 14 days; the culture medium was replaced every 3 to 4 days; in the end of the experiment, the cells are washed twice with PBS and fixed with 4% paraformaldehyde for 15 minutes and stained with 0.1% crystal violet. Referring to FIG. 9C, a quantitative result of the colony forming assay in FIG. 9B is provided in accordance with an exemplary embodiment of the present disclosure. In FIG. 9C, the results of the colony forming assay are quantified by microscopic examination by stereomicroscope.

Series [2] relates to FaDu cells. The series is described as follows: in vitro cell viability of FaDu cells. To be noted: for cytotoxicity: viability and colony forming. Type of series: cell-based, human.

For the substance dibromocurcumin [DBC], the “colony forming assay versus DBC or NR alone” value in series [1] (DBC combined with 1 Gy of 14 keV NR) is “same result”. Further, in series [1] (FaDu cells, 40 μM DBC), the colony forming inhibition result is listed as “about 50%”. Moreover, in series [2] (20 μM of DBC combined with 1 Gy of NR), the “cytotoxicity to FaDu cells” value was “significantly higher than using DBC or NR alone”. In addition, in series [2] (DBC and NR, FaDu cells), the “cytotoxicity of the combination with NR” value is “synergistic cytotoxicity”. The cytotoxicity entry in series [2] (DBC dosage less than 20 μM) is recorded as “little cytotoxicity”; in series [2] (DBC dosage more than 120 μM) it was “efficiently kills FaDu cells”. Moreover, the cell viability entry in series [2] (FaDu cells, 80 μM DBC for 24 hours, Day 7) is given as “less than 50%”.
